This note sets out measurements from patent US12336982B2 (RODEO THERAPEUTICS CORPORATION, priority 2018, dated 2025).

The target in this test is T1, recombinant 15-PGDH (Homo sapiens, UniProt P15428).
T1 sequence (P15428 1-266): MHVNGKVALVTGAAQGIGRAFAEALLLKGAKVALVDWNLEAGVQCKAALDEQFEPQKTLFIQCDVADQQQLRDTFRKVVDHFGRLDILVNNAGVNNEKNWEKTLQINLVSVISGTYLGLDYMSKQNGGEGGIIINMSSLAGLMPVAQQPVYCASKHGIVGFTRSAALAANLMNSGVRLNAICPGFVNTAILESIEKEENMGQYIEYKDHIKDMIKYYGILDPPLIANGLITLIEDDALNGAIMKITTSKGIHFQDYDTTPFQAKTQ
Format: biochemical. The settings on record: recombinant human 15-PGDH, in vitro; read-out: PDGH Assay-IC50.
From the text: The Recombinant 15-PGDH is human unless otherwise specified.

Regarding `COCC[S+]([O-])c1sc2nc(-c3cnc4nn(C)nc4c3)cc(C3CCC3)c2c1N` (stereo not shown) [Example 377], the IC50 was less than 2.5 nM.

Regarding `Nc1c([S+]([O-])C2CCC2)sc2nc(-c3ccnn3C3CC3)cc(-c3cncnc3)c12` (stereo not shown) [Example 416], the half-inhibitory concentration (IC50) is not below 10 nM.

Regarding `Nc1c([S+]([O-])C2CCC2)sc2nc(-c3cnc(NCCO)nc3)cc(-c3ccccn3)c12` (stereo not shown) [Example 92], the IC50 was less than 2.5 nM.

`COCCC[S+]([O-])c1sc2nc(-c3ccc(N)nc3)cc(C(F)(F)F)c2c1N` (stereo not shown) [Example 134]: the half-inhibitory concentration (IC50) fell in the range of 2.5 to 10 nM.

Regarding `Nc1ncc(-c2cc(-c3ncccc3F)c3c(N)c([S+]([O-])C4CCC4)sc3n2)cn1` (stereo not shown) [Example 76], the IC50 is less than 2.5 nM.

For the compound `COCC[S@+]([O-])c1sc2nc(-c3cnc4ncn(C)c4c3)cc(C3CC3)c2c1N` [Example 406], the IC50 is not below 10 nM.

Take `COCCC[S@+]([O-])c1sc2nc(-c3cccnc3)cc(C(F)(F)F)c2c1N` [Example 79]: the IC50 is not below 10 nM.

As for `CNc1ncc(-c2cc(-c3ccn(C)n3)c3c(N)c([S+]([O-])CCOC)sc3n2)cn1` (stereo not shown) [Example 339], the IC50 is less than 2.5 nM.

`Cn1nccc1-c1cc(-c2cnc3c(c2)nnn3C)nc2sc([S+]([O-])C3CCC3)c(N)c12` (stereo not shown) [Example 325]: the IC50 was less than 2.5 nM.

For `COCCC[S+]([O-])c1sc2nc(-c3cnc(N4CC(O)C4)nc3)cc(-c3ccccc3)c2c1N` (stereo not shown) [Example 290], the IC50 is 2.5 to 10 nM.

As for `COCC[S@@+]([O-])c1sc2nc(-c3cnn(C)c3)cc(C3CC3)c2c1N` [Example 275], the 50% inhibitory concentration (IC50) was less than 2.5 nM.

For `CNc1ncc(-c2cc(-c3ccnn3C)c3c(N)c([S+]([O-])CCOC)sc3n2)cn1` (stereo not shown) [Example 330], the IC50 is less than 2.5 nM.

Regarding `Cc1ncc(-c2cc(-c3cnn(C)c3)c3c(N)c([S+]([O-])C4CCC4)sc3n2)cn1` (stereo not shown) [Example 281], the IC50 is less than 2.5 nM.

As for `COCCC[S+]([O-])c1sc2nc(-c3cncnc3)cc(C3CC3)c2c1N` (stereo not shown) [Example 106], the IC50 is less than 2.5 nM.

As for `COCC[S@+]([O-])c1sc2nc(-c3cnc4nn(C)nc4c3)cc(-c3ccnn3C)c2c1N` [Example 382], the IC50 was not below 10 nM.

For the compound `Nc1c([S@@+]([O-])C2CCC2)sc2nc(-c3cnc(NCCO)nc3)cc(-c3ncccc3F)c12` [Example 182], the IC50 is not below 10 nM.

As for `COCC[S+]([O-])c1sc2nc(-c3cnn(C)c(=O)c3)cc(C3CCC3)c2c1N` (stereo not shown) [Example 396], the IC50 was less than 2.5 nM.

As for `Cn1ncc(-c2cc(C3CCC3)c3c(N)c([S+]([O-])C4CCC4)sc3n2)cc1=O` (stereo not shown) [Example 398], the IC50 is less than 2.5 nM.

`COCCC[S+]([O-])c1sc2nc(-c3cnc(NCCO)nc3)cc(-c3ccccc3)c2c1N` (stereo not shown) [Example 125]: the IC50 was less than 2.5 nM.

For `COCCC[S+]([O-])c1sc2nc(-c3ccc(NCCO)nc3)cc(-c3ccc(F)cc3)c2c1N` (stereo not shown) [Example 70], the IC50 lay within 2.5 to 10 nM.

On to `COCCC[S@+]([O-])c1sc2nc(-c3cnc4nn(C)cc4c3)cc(C3CCC3)c2c1N` [Example 262], for which the IC50 was not below 10 nM.

On to `Nc1c([S+]([O-])C2CCC2)sc2nc(-c3cnc(NCCO)nc3)cc(-c3ccccc3)c12` (stereo not shown) [Example 44], for which the IC50 was less than 2.5 nM.

In the case of `COCC[S+]([O-])c1sc2nc(-c3cnc4c(c3)ncn4C)cc(C3CCC3)c2c1N` (stereo not shown) [Example 376], the IC50 is less than 2.5 nM.

In the case of `Cc1cn(C)nc1-c1cc(-c2cnc(N)nc2)nc2sc([S+]([O-])C3CCC3)c(N)c12` (stereo not shown) [Example 357], the IC50 was less than 2.5 nM.

In the case of `Cn1nccc1-c1cc(-c2cnc3nccn3c2)nc2sc([S+]([O-])C3CCC3)c(N)c12` (stereo not shown) [Example 320], the IC50 is less than 2.5 nM.

As to `Cn1cc(-c2cc(-c3cncnc3)nc3sc([S+]([O-])C4CCC4)c(N)c23)cn1` (stereo not shown) [Example 282], the IC50 is less than 2.5 nM.

Regarding `Cc1cc(-c2cc(-c3cncnc3)nc3sc([S+]([O-])C4CCC4)c(N)c23)ccn1` (stereo not shown) [Example 154], the 50% inhibitory concentration (IC50) is less than 2.5 nM.

Take `Nc1c([S+]([O-])C2CCC2)sc2nc(-c3cnc(N4CCOCC4)nc3)cc(-c3ccccc3)c12` (stereo not shown) [Example 194]: the IC50 was in the range of 2.5 to 10 nM.

Turning to `Cn1nccc1-c1cc(-c2cnc3nnn(C)c3c2)nc2sc([S+]([O-])C3CCC3)c(N)c12` (stereo not shown) [Example 370], the concentration for half-maximal inhibition (IC50) is less than 2.5 nM.

For the compound `COCC[S+]([O-])c1sc2nc(-c3cnc(N)nc3)cc(-c3cnn(C)c3)c2c1N` (stereo not shown) [Example 196], the IC50 is less than 2.5 nM.

On to `Cn1nccc1-c1cc(-c2cnc3ncn(C)c3c2)nc2sc([S@+]([O-])C3CCC3)c(N)c12` [Example 371], for which the 50% inhibitory concentration (IC50) was less than 2.5 nM.

Turning to `Cn1cc(-c2cc(-c3cnc4nn(C)cc4c3)nc3sc([S+]([O-])C4CCC4)c(N)c23)cn1` (stereo not shown) [Example 279], the IC50 was 2.5 to 10 nM.

On to `Cn1cc(-c2cc(C3CC3)c3c(N)c([S+]([O-])C4CCC4)sc3n2)cn1` (stereo not shown) [Example 277], for which the IC50 is less than 2.5 nM.

As for `COCC[S+]([O-])c1sc2nc(-c3cnc4nn(C)cc4c3)cc(C3CC3)c2c1N` (stereo not shown) [Example 176], the IC50 is less than 2.5 nM.

Turning to `Nc1c([S+]([O-])C2CCC2)sc2nc(-c3cnc(NCCO)nc3)cc(C3CC3)c12` (stereo not shown) [Example 145], the IC50 was less than 2.5 nM.

Consider `Nc1c([S+]([O-])C2CCC2)sc2nc(-c3cnc(NCCO)nc3)cc(-c3ccc(Cl)cc3)c12` (stereo not shown) [Example 159], for which the IC50 is less than 2.5 nM.

With `COCC[S+]([O-])c1sc2nc(-c3cnc(N(C)CCO)nc3)cc(C(F)(F)F)c2c1N` (stereo not shown) [Example 186], the IC50 fell in the range of 2.5 to 10 nM.

For `Nc1c([S@+]([O-])C2CCC2)sc2nc(-c3cnc(NCCO)nc3)cc(C3CCC3)c12` [Example 306], the IC50 is less than 2.5 nM.

As for `COCC[S@@+]([O-])c1sc2nc(-c3cnc4c(c3)CNC4=O)cc(-c3ccccc3)c2c1N` [Example 242], the IC50 was less than 2.5 nM.

`Nc1c([S+]([O-])C2CCC2)sc2nc(-c3cncnc3)cc(-c3ccn(C4CC4)n3)c12` (stereo not shown) [Example 414]: the 50% inhibitory concentration (IC50) is less than 2.5 nM.

Regarding `COCC[S+]([O-])c1sc2nc(-c3cncnc3)cc(-c3ncccn3)c2c1N` (stereo not shown) [Example 229], the IC50 is less than 2.5 nM.

For the compound `COCC[S+]([O-])c1sc2nc(-c3cnc(N)nc3)nc(-c3ccccc3)c2c1N` (stereo not shown) [Example 430], the IC50 was less than 2.5 nM.

In the case of `CN(C)C(=O)c1ncc(-c2cc(-c3ccccc3)c3c(N)c([S+]([O-])C4CCC4)sc3n2)cn1` (stereo not shown) [Example 61], the IC50 lay within 2.5 to 10 nM.

With `COCC[S@+]([O-])c1sc2nc(-c3cnc4nn(C)cc4c3)cc(C(F)(F)F)c2c1N` [Example 419], the IC50 is not below 10 nM.

With `Cn1nccc1-c1cc(-c2cnc(O)nc2)nc2sc([S@+]([O-])C3CCC3)c(N)c12` [Example 224], the IC50 is less than 2.5 nM.

As for `COCC[S@@+]([O-])c1sc2nc(-c3cnc(N)nc3)cc(C3CCC3)c2c1N` [Example 346], the IC50 was less than 2.5 nM.

`COCCC[S+]([O-])c1sc2nc(-c3cnc4nn(C)cc4c3)cc(C3CCC3)c2c1N` (stereo not shown) [Example 260]: the IC50 is less than 2.5 nM.

For `COCC[S@@+]([O-])c1sc2nc(-c3cnc(NCCO)nc3)cc(C(F)(F)F)c2c1N` [Example 206], the half-maximal inhibitory concentration (IC50) was less than 2.5 nM.

With `COCCC[S+]([O-])c1sc2nc(-c3cnc(N4CCOCC4)nc3)cc(C(F)(F)F)c2c1N` (stereo not shown) [Example 425], the IC50 lay within 2.5 to 10 nM.

Regarding `Cc1cc(-c2cc(-c3cnc(N)nc3)nc3sc([S+]([O-])C4CCC4)c(N)c23)n(C)n1` (stereo not shown) [Example 355], the IC50 was less than 2.5 nM.

Regarding `Nc1c([S+]([O-])C2CCC2)sc2nc(-c3cnc(NCC(CO)CO)nc3)cc(-c3ccccc3)c12` (stereo not shown) [Example 193], the IC50 is less than 2.5 nM.

With `Cn1cc(-c2cc(-c3cccnc3)c3c(N)c([S+]([O-])C4CCC4)sc3n2)ccc1=O` (stereo not shown) [Example 89], the IC50 was less than 2.5 nM.

`COCC[S@@+]([O-])c1sc2nc(-c3cnc4nn(C)cc4c3)cc(C(F)(F)F)c2c1N` [Example 418]: the IC50 is less than 2.5 nM.

Turning to `COCC[S+]([O-])c1sc2nc(-c3cncnc3)cc(C34CC(C3)C4)c2c1N` (stereo not shown) [Example 256], the IC50 is less than 2.5 nM.

In the case of `CN(CCO)c1ncc(-c2cc(-c3ccccc3)c3c(N)c([S+]([O-])C4CCC4)sc3n2)cn1` (stereo not shown) [Example 144], the half-maximal inhibitory concentration (IC50) was less than 2.5 nM.

Take `COCC[S@@+]([O-])c1sc2nc(-c3cnc(NCCO)nc3)cc(C3CCC3)c2c1N` [Example 349]: the IC50 is less than 2.5 nM.

On to `Cn1cc2cc(-c3cc(C(F)(F)F)c4c(N)c([S@@+]([O-])C5CCC5)sc4n3)cnc2n1` [Example 422], for which the IC50 is not below 10 nM.

On to `Cn1cc2cc(-c3cc(C(F)(F)F)c4c(N)c([S@+]([O-])C5CCC5)sc4n3)cnc2n1` [Example 423], for which the IC50 was less than 2.5 nM.

Turning to `Nc1ncc(-c2cc(-c3ncccn3)c3c(N)c([S+]([O-])C4CCC4)sc3n2)cn1` (stereo not shown) [Example 328], the IC50 is less than 2.5 nM.

In the case of `COCC[S+]([O-])c1sc2nc(-c3ccc4c(=O)[nH]ccc4c3)cc(-c3ccnn3C)c2c1N` (stereo not shown) [Example 317], the IC50 was less than 2.5 nM.

Turning to `Cn1nccc1-c1cc(-c2ccc3c(=O)[nH]ccc3c2)nc2sc([S+]([O-])C3CCC3)c(N)c12` (stereo not shown) [Example 316], the concentration for half-maximal inhibition (IC50) lay within 2.5 to 10 nM.

With `COCC[S+]([O-])c1sc2nc(-c3cncnc3)cc(-c3ccn(C)n3)c2c1N` (stereo not shown) [Example 337], the IC50 is less than 2.5 nM.

Turning to `Cn1nccc1-c1cc(-c2cnn3ccnc3c2)nc2sc([S+]([O-])C3CCC3)c(N)c12` (stereo not shown) [Example 319], the IC50 is less than 2.5 nM.

For the compound `Nc1c([S+]([O-])C2CCC2)sc2nc(-c3cncnc3)cc(-c3cnccn3)c12` (stereo not shown) [Example 289], the IC50 was less than 2.5 nM.

For the compound `Nc1c([S+]([O-])C2CCC2)sc2nc(-c3cncnc3)cc(C3CCC3)c12` (stereo not shown) [Example 255], the IC50 was less than 2.5 nM.

For `Cn1nccc1-c1cc(-c2cnc3nnn(C)c3c2)nc2sc([S+]([O-])C3CCC3)c(N)c12` (stereo not shown) [Example 369], the IC50 was less than 2.5 nM.

As for `COCC[S+]([O-])c1sc2nc(-c3cnc4nn(C)cc4c3)cc(-c3ccnn3C)c2c1N` (stereo not shown) [Example 334], the IC50 is less than 2.5 nM.

By IC50 is commonly meant the midpoint of a concentration-inhibition curve.
